Test results from US9642361B2, “Method for changing the development pattern, increasing the growth and the accumulation of starch, changing the structure of starch and increasing the resistance to water stress in plants” (IDEN BIOTECHNOLOGY, S.L., priority 2010, dated 2017).

Legend:
[1] = test system: Arabidopsis thaliana plants; assay: Starch content in leaves of Arabidopsis plants cultured next to solutions of volatile compounds; assay type: in vivo; conditions: for starch accumulation in leaves: 2 cubic centimeters of 5% aqueous solution in 500 cubic centimeter box, two days
Procedure: To that end, the plants were cultured in Petri dishes containing solid MS medium with 90 mM sucrose. The plants germinated and were grown for two weeks in growth chambers with a photoperiod of 16 h of light (300 μmol of photons s^−1 m^−2) and at a constant temperature of 24° C.
The Petri dishes containing completely developed plants were placed in 500 cubic centimeter grow boxes with the particularity that, instead of microbial cultures, […] were introduced in said boxes in each case: indol, DTT (dithiothreitol), NAA (1-naphthaleneacetic acid), β-mercaptoethanol, salicylic acid, jasmonic acid, cysteine, acetoin, ethanol, methanol, β-hydroxybutyrate, butanediol, propanoic acid, acetic acid, acetaldehyde, formic acid or butyric acid, without there being any physical contact between the plant and the solution. The ethylene was provided in the form of ethephon powders. The boxes were sealed and leaves were harvested after two days of incubation to analyze starch content. Leaves were harvested at the end of the light period. As a negative control, the Petri dishes containing completely developed plants were cultured for two days in sealed plastic boxes together with a Petri dish containing 2 cubic centimeters of water in the absence of any of the volatile compounds assayed.
Starch was measured using an amyloglucosidase-based test kit (Boehringer Mannheim, Germany).

detached potato leaves = assay: Starch content in detached potato leaves with added amino acids, with or without FVs; assay type: in vivo, Solanum tuberosum; conditions: exogenously added amino acid, +FV, 2 days
Procedure: FIG. 19: Graph depicting the starch content (expressed as μmoles of glucose per gram of fresh weight) measured in potato plants cultured for 2 days in MS supplemented with 90 mM sucrose and the indicated concentrations of cysteine, glycine, serine and methionine in the absence (−FV) or in the presence (+FV) of volatiles emitted by A. alternata grown in solid MS medium supplemented with 90 mM sucrose.
Therefore, it was investigated whether plastidial cysteine provision impairments are directly involved in MIVOISAP by measuring the starch content in detached potato leaves cultured in the presence and in the absence of FVs emitted by Alternaria alternata, and in the presence of different concentrations of cysteine.

[2] = test system: leaves cut from Arabidopsis; assay: Starch accumulation in cut Arabidopsis leaves with transcription/translation inhibitors in presence of fungal volatiles; assay type: in vivo, Arabidopsis thaliana; conditions: 50 μM cycloheximide or 200 μM cordycepin; after 2 hours of incubation
Procedure: The experiment of section 5.1 was repeated, using in this case leaves cut from Arabidopsis incubated in Petri dishes with solid MS medium supplemented with 90 mM sucrose and, where appropriate, with 50 micromoles (μM) of translation inhibitor cycloheximide (Sigma) and 200 micromoles (μM) of transcription inhibitor cordycepin (Sigma) (Fritz, C. C. et al., 1991: Proc. Natl. Acad. Sci. USA 88: 4458-4462; Hayashi, T. and Takagi, S., 2003; Plant Cell Physiol. 44: 1027-1036; Dhonukshe et al., 2006: Developmental Cell 10: 137-150). The dishes were deposited in 500 cubic centimeter boxes in which cultures of Alternaria alternata had previously been deposited.

CC(=O)O [acetic acid]
starch accumulation in leaves [1]: promote starch overaccumulation

O=CO [formic acid]
starch accumulation in leaves [1]: promote starch overaccumulation
dose dependence of the effect on starch accumulation ([1]; solutions at 1%, 2% or 5% (v/v)): dose-dependent

N[C@@H](CS)C(=O)O [cysteine]
MIVOISAP (starch content) in detached leaves (detached potato leaves): strongly suppressed

CC=O [acetaldehyde]
starch accumulation in leaves [1]: promote starch overaccumulation

CCCC(=O)O [butyric acid]
starch accumulation in leaves [1]: promote starch overaccumulation

C[C@@H]1C[C@@H]([C@H](O)CC2CC(=O)NC(=O)C2)C(=O)[C@@H](C)C1 [cycloheximide]
starch accumulation in presence of fungal volatiles [2]: strongly inhibit starch accumulation

CCC(=O)O [propanoic acid]
starch accumulation in leaves [1]: promote starch overaccumulation

Nc1ncnc2c1ncn2[C@@H]1O[C@H](CO)C[C@H]1O [cordycepin]
starch accumulation in presence of fungal volatiles [2]: strongly inhibit starch accumulation
